Assay results taken from ChEMBL document CHEMBL1201862, “PubChem BioAssay data set” (2004).
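How tested: cells in 96-well plates exposed to compound for 48 hours at five concentrations. GI50: concentration for 50% inhibition of growth.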 Activity calls are given as the source filed them. Cut-off read from the data, not from the text of the source: active = GI50 up to about 1.1 µM and inactive = higher.

Columns and labels:
Assay in all cases: DTP human tumour cell line panel, 48 h
EKVX = test system: EKVX
HCC 2998 = test system: HCC 2998
HL-60 = test system: HL-60
HT-29 = test system: HT-29
M14 = test system: M14
MOLT-4 = test system: MOLT-4
Malme-3M = test system: Malme-3M
NCI-H226 = test system: NCI-H226
NCI-H460 = test system: NCI-H460
OVCAR-3 = test system: OVCAR-3
OVCAR-4 = test system: OVCAR-4
RPMI-8226 = test system: RPMI-8226
SF-268 = test system: SF-268
SN12C = test system: SN12C
TK-10 = test system: TK-10
UACC-62 = test system: UACC-62
DU-145 = test system: DU-145
MDA-MB-435 = test system: MDA-MB-435
MDA-N = test system: MDA-N
MCF7 = test system: MCF7

Measured: GI50

COc1cc2c(c(O)c1O)-c1ccc(OC)c(=O)cc1C(NC(C)=O)CC2 (centres undefined)
inactive: EKVX 39 µM | HCC 2998 8.05 µM | HL-60 2.21 µM | HT-29 3.91 µM | M14 7.41 µM | MOLT-4 5.5 µM | Malme-3M 16.5 µM | NCI-H226 43.2 µM | NCI-H460 25.2 µM | OVCAR-3 2.4 µM | OVCAR-4 27.5 µM | RPMI-8226 3.86 µM | SF-268 5.75 µM | SN12C 12.8 µM | TK-10 64.3 µM | UACC-62 6.98 µM

COc1ccc2[nH]cc(CCNC(=O)[C@](O)(Cc3cn(C)c4ccccc34)[C@@]3(O)OCC(O)C3O)c2c1 (some centres undefined)
inactive: EKVX > 100 µM | HCC 2998 > 100 µM | HL-60 32.1 µM | HT-29 > 100 µM | M14 > 100 µM | MOLT-4 37 µM | Malme-3M > 100 µM | NCI-H226 > 100 µM | NCI-H460 77.4 µM | OVCAR-3 > 100 µM | OVCAR-4 > 100 µM | RPMI-8226 39.4 µM | SF-268 82.6 µM | SN12C > 100 µM | TK-10 > 100 µM | UACC-62 58.9 µM

CCCCCCCC(=O)OCC1OC(OC)C(NC(=O)N(CCCl)N=O)C(O)C1O (centres undefined)
inactive: EKVX 30.6 µM | HCC 2998 14.3 µM | HL-60 4.14 µM | HT-29 15 µM | M14 8.41 µM | MOLT-4 3.05 µM | Malme-3M 13.3 µM | NCI-H226 15.7 µM | NCI-H460 3.46 µM | OVCAR-3 19.7 µM | OVCAR-4 > 54.6 µM | RPMI-8226 16.3 µM | SF-268 2.15 µM | SN12C 7.67 µM | TK-10 18.5 µM | UACC-62 1.86 µM

CCOC(=O)C12CCCC1(O)N(NC(N)=O)C(C)=C2C(=O)OC (centres undefined)
inactive: EKVX > 100 µM | HCC 2998 > 100 µM | HL-60 > 100 µM | HT-29 > 100 µM | M14 > 100 µM | MOLT-4 > 100 µM | Malme-3M > 100 µM | NCI-H226 > 100 µM | NCI-H460 > 100 µM | OVCAR-3 > 100 µM | OVCAR-4 > 100 µM | RPMI-8226 > 100 µM | SF-268 > 100 µM | SN12C > 100 µM | TK-10 > 100 µM | UACC-62 > 100 µM

COc1ccc(C(=O)C(c2ccc(OCc3ccccc3)cc2)c2ccc(OCc3ccccc3)cc2)cc1
inactive: EKVX > 100 µM | HCC 2998 > 100 µM | HL-60 > 100 µM | HT-29 > 100 µM | M14 > 100 µM | MOLT-4 > 100 µM | Malme-3M > 100 µM | NCI-H226 > 100 µM | NCI-H460 > 100 µM | OVCAR-3 > 100 µM | OVCAR-4 > 100 µM | RPMI-8226 > 100 µM | SF-268 > 100 µM | SN12C > 100 µM | TK-10 > 100 µM | UACC-62 > 100 µM

COC(=O)c1ccc(C=C(C#N)C#N)cc1
inactive: EKVX 33.8 µM | HCC 2998 15.6 µM | HL-60 28.4 µM | HT-29 33.4 µM | M14 16.5 µM | MOLT-4 21.7 µM | Malme-3M 20.7 µM | NCI-H226 24 µM | NCI-H460 83.6 µM | OVCAR-3 29.4 µM | OVCAR-4 20.6 µM | RPMI-8226 22.5 µM | SF-268 23 µM | SN12C 19.3 µM | TK-10 27.9 µM | UACC-62 20.8 µM

N#Cc1c2c(c(Nc3cccc(C(F)(F)F)c3)n3c1nc1ccccc13)CCCC2
inactive: DU-145 21.3 µM | EKVX 20.8 µM | HT-29 16.2 µM | MDA-MB-435 28.4 µM | MDA-N 15 µM | MOLT-4 15.2 µM | Malme-3M 21.3 µM | NCI-H226 26.5 µM | NCI-H460 23.1 µM | OVCAR-3 14.6 µM | OVCAR-4 13.9 µM | RPMI-8226 19.4 µM | SF-268 15.2 µM | SN12C 22.8 µM | TK-10 16.3 µM

CCOC(=O)C(NC(=O)c1ccccc1)(N1CCN(c2cc3c(cc2F)c(=O)c(C(=O)O)cn3C2CC2)CC1)C(F)(F)F (centres undefined)
inactive: DU-145 27.5 µM | EKVX 24.9 µM | HCC 2998 22.5 µM | HL-60 14.4 µM | M14 19.6 µM | MDA-MB-435 21.1 µM | MDA-N 21.1 µM | MOLT-4 14.1 µM | Malme-3M 20.2 µM | NCI-H226 21.2 µM | NCI-H460 21 µM | OVCAR-3 23.4 µM | OVCAR-4 22.5 µM | RPMI-8226 23.1 µM | SF-268 18.1 µM | SN12C 26.4 µM | UACC-62 22 µM

N#Cc1c(-c2ccccc2)c(-c2ccccc2)cc2c(=O)c3ccc(Cl)cc3[nH]c12
inactive: EKVX > 100 µM | HCC 2998 > 100 µM | HL-60 > 100 µM | HT-29 > 100 µM | MOLT-4 > 100 µM | Malme-3M > 100 µM | NCI-H226 > 100 µM | NCI-H460 > 100 µM | OVCAR-3 > 100 µM | RPMI-8226 > 100 µM | SF-268 > 100 µM | SN12C > 100 µM | TK-10 > 100 µM | UACC-62 > 100 µM

O=C1[C@@H]2C(c3ccccc3Br)=NO[C@@H]2C(=O)N1c1ccc(Cc2ccc(N3C(=O)[C@H]4C(c5ccccc5Br)=NO[C@H]4C3=O)cc2)cc1
inactive: EKVX > 100 µM | HCC 2998 > 100 µM | HL-60 > 100 µM | HT-29 > 100 µM | M14 > 100 µM | MOLT-4 > 100 µM | Malme-3M > 100 µM | NCI-H226 96.4 µM | NCI-H460 > 100 µM | OVCAR-3 > 100 µM | OVCAR-4 > 100 µM | RPMI-8226 > 100 µM | SF-268 > 100 µM | SN12C > 100 µM | TK-10 > 100 µM | UACC-62 > 100 µM

Nc1ccccc1C(=O)/C=C/c1c(O)ccc2ccccc12
inactive: EKVX > 100 µM | HCC 2998 > 100 µM | HL-60 > 100 µM | HT-29 > 100 µM | M14 > 100 µM | MOLT-4 > 100 µM | Malme-3M > 100 µM | NCI-H226 > 100 µM | NCI-H460 > 100 µM | OVCAR-3 > 100 µM | OVCAR-4 > 100 µM | RPMI-8226 > 100 µM | SF-268 > 100 µM | SN12C 32.7 µM | TK-10 > 100 µM | UACC-62 > 100 µM

N#Cc1c2ccc([N+](=O)[O-])cc2c(=O)n2c1sc1ccc(C(F)(F)F)cc12
inactive: DU-145 > 100 µM | EKVX > 100 µM | HT-29 > 100 µM | M14 > 100 µM | MDA-MB-435 > 100 µM | MOLT-4 > 100 µM | Malme-3M > 100 µM | NCI-H226 > 100 µM | NCI-H460 > 100 µM | OVCAR-3 > 100 µM | OVCAR-4 > 100 µM | RPMI-8226 > 100 µM | SF-268 > 100 µM | SN12C > 100 µM | TK-10 > 100 µM

COc1ccc2c(c1)O[C@@H]1c3ccc(OC)cc3OC[C@H]21
inactive: HCC 2998 35.2 µM | HL-60 19.3 µM | HT-29 > 10 µM | M14 26.9 µM | MOLT-4 16.6 µM | Malme-3M 39.2 µM | NCI-H226 21.5 µM | NCI-H460 26.2 µM | OVCAR-3 34 µM | OVCAR-4 29.2 µM | RPMI-8226 26.9 µM | SF-268 38.2 µM | SN12C 55.2 µM | TK-10 35.6 µM | UACC-62 37.8 µM

N=C(N)N/N=C/c1c(-c2cc([N+](=O)[O-])c(Cl)cc2Cl)nc2n1CCS2
inactive: DU-145 27.6 µM | EKVX 40.9 µM | HCC 2998 2.55 µM | HL-60 5.08 µM | HT-29 7.08 µM | M14 6.04 µM | MCF7 2.67 µM | MDA-MB-435 9.38 µM | MOLT-4 6.79 µM | Malme-3M 24.5 µM | NCI-H226 34.4 µM | NCI-H460 27.6 µM | OVCAR-3 8.04 µM | OVCAR-4 10.4 µM | RPMI-8226 7.6 µM | SF-268 9.93 µM | SN12C 23.4 µM | TK-10 15.5 µM | UACC-62 25.5 µM

C=CCC12CCC(=O)[C@@]1(C)CC=C(O)C2=O (some centres undefined)
inactive: EKVX > 100 µM | HCC 2998 > 100 µM | HL-60 > 100 µM | HT-29 > 100 µM | M14 > 100 µM | MOLT-4 > 100 µM | Malme-3M > 100 µM | NCI-H226 > 100 µM | NCI-H460 > 100 µM | OVCAR-3 > 100 µM | OVCAR-4 > 100 µM | RPMI-8226 > 100 µM | SF-268 > 100 µM | SN12C > 100 µM | TK-10 > 100 µM | UACC-62 > 100 µM

CC(=O)OC1CC2CCN3C(=O)c4cc5c(cc4[C@H](C1OC(C)=O)C23)OCO5 (some centres undefined)
inactive: EKVX > 100 µM | HCC 2998 > 100 µM | HL-60 > 100 µM | HT-29 > 100 µM | M14 > 100 µM | MOLT-4 > 100 µM | Malme-3M > 100 µM | NCI-H226 > 100 µM | NCI-H460 > 100 µM | OVCAR-3 > 100 µM | RPMI-8226 > 100 µM | SF-268 > 100 µM | SN12C > 100 µM | TK-10 > 100 µM | UACC-62 > 100 µM

O=C1CC[C@H](NC(=O)Cc2ccccc2)C(=O)N1 [ANTINEOPLASTON A10]
inactive: EKVX > 1250 µM | HCC 2998 > 1250 µM | HL-60 > 1250 µM | HT-29 > 1250 µM | M14 > 1250 µM | MOLT-4 > 1250 µM | Malme-3M > 1250 µM | NCI-H226 > 1250 µM | NCI-H460 > 1250 µM | OVCAR-4 > 1250 µM | RPMI-8226 > 1250 µM | SF-268 > 1250 µM | SN12C > 1250 µM | TK-10 > 1250 µM | UACC-62 > 1250 µM
